# Measurements published in ChEMBL document CHEMBL1201861, “Genomics of Drug Sensitity in Cancer screening data, Wellcome Trust Sanger Institute”.
# How the values were obtained:
# Test in all cases: cells
# [1] = tested on: NCI-H446; assay type: functional, cell-based; settings: Homo sapiens;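 also: growth inhibition of NCI-H446 cells determined by a cell viability assay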
# Description: SANGER: Inhibition of human NCI-H446 cell growth in a cell viability assay.
# [2] = tested on: MDA-MB-361; assay type: functional, cell-based, Homo sapiens; settings: Homo sapiens, MDA-MB-361
# [3] = tested on: SW948; assay type: functional, cell-based, Homo sapiens; settings: Homo sapiens, SW948;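 also: growth inhibition of SW948 cells, read out with a cell viability assay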
# Description: SANGER: Inhibition of human SW948 cell growth in a cell viability assay.
# [4] = tested on: SW1783; assay type: functional, cell-based; settings: Homo sapiens;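 also: cell growth inhibition measured with a viability assay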
# Description: SANGER: Inhibition of human SW1783 cell growth in a cell viability assay.
# [5] = tested on: A-431; assay type: functional, cell-based, Homo sapiens; settings: Homo sapiens, A-431;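 also: growth inhibition of A-431 cells, determined with a cell viability read-out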
# Description: SANGER: Inhibition of human A431 cell growth in a cell viability assay.
# [6] = tested on: A253 cell line; assay type: functional, cell-based, Homo sapiens; settings: Homo sapiens, A253;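 also: growth inhibition of A253 cells, read out with a cell viability assay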
# Description: SANGER: Inhibition of human A253 cell growth in a cell viability assay.
# [7] = tested on: ONS-76; assay type: functional, cell-based, Homo sapiens; settings: Homo sapiens, ONS-76;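 also: growth inhibition of human ONS-76 cells, read out with a cell viability assay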
# Description: SANGER: Inhibition of human ONS-76 cell growth in a cell viability assay.
# [8] = tested on: LCLC-97TM1; assay type: functional, cell-based, Homo sapiens; settings: Homo sapiens, LCLC-97TM1;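 also: cell viability assay measuring growth inhibition of human LCLC-97TM1 cells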
# Description: SANGER: Inhibition of human LCLC-97TM1 cell growth in a cell viability assay.
# [9] = tested on: CAMA-1; assay type: functional, cell-based, Homo sapiens; settings: Homo sapiens, CAMA-1;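 also: growth inhibition of CAMA-1 cells, read out with a cell viability assay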
# Description: SANGER: Inhibition of human CAMA-1 cell growth in a cell viability assay.
# [10] = tested on: LC-2-ad; assay type: functional, cell-based, Homo sapiens; settings: Homo sapiens, LC-2-ad;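 also: growth inhibition of human LC-2-ad cells, read out with a cell viability assay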
# Description: SANGER: Inhibition of human LC-2-ad cell growth in a cell viability assay.
# [11] = tested on: CP66-MEL; assay type: functional, cell-based, Homo sapiens; settings: Homo sapiens, CP66-MEL;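 also: growth inhibition of CP66-MEL cells determined in a cell viability assay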
# Description: SANGER: Inhibition of human CP66-MEL cell growth in a cell viability assay.
# [12] = tested on: RPMI-2650; assay type: functional, cell-based, Homo sapiens; settings: Homo sapiens, RPMI-2650
# Description: SANGER: Inhibition of human RPMI-2650 cell growth in a cell viability assay.
# [13] = tested on: U2OS; assay type: functional, cell-based, Homo sapiens, U-2-OS; settings: Homo sapiens, U2OS;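 also: growth inhibition of human U-2-OS cells, determined with a cell viability assay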
# Description: SANGER: Inhibition of human U-2-OS cell growth in a cell viability assay.
# [14] = tested on: MFM-223; assay type: functional, cell-based, Homo sapiens; settings: Homo sapiens, MFM-223
# Description: SANGER: Inhibition of human MFM-223 cell growth in a cell viability assay.
# [15] = tested on: MC-IXC; assay type: functional, cell-based, Homo sapiens; settings: Homo sapiens, MC-IXC;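 also: growth inhibition of MC-IXC cells, read out with a cell viability assay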
# Description: SANGER: Inhibition of human MC-IXC cell growth in a cell viability assay.
# [16] = tested on: HT-29; assay type: functional, cell-based, Homo sapiens; settings: Homo sapiens, HT-29;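 also: growth inhibition of human HT-29 cells, read out by a cell viability assay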
# Description: SANGER: Inhibition of human HT-29 cell growth in a cell viability assay.
# [17] = tested on: COLO-320-HSR; assay type: functional, cell-based; settings: Homo sapiens;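 also: growth inhibition of COLO-320-HSR cells, determined with a cell viability assay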
# Description: SANGER: Inhibition of human COLO-320-HSR cell growth in a cell viability assay.
# [18] = tested on: ES7; assay type: functional, cell-based, Homo sapiens; settings: Homo sapiens, ES7;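 also: growth inhibition of cultured human ES7 cells, read out as cell viability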
# Description: SANGER: Inhibition of human ES7 cell growth in a cell viability assay.
# [19] = tested on: HuP-T4; assay type: functional, cell-based, Homo sapiens; settings: Homo sapiens, HuP-T4;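 also: cell viability assay measuring how much HuP-T4 cell growth is inhibited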
# Description: SANGER: Inhibition of human HuP-T4 cell growth in a cell viability assay.
# [20] = tested on: NH-12; assay type: functional, cell-based, Homo sapiens; settings: Homo sapiens, NH-12;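 also: growth inhibition of NH-12 cells, read out with a cell viability assay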
# Description: SANGER: Inhibition of human NH-12 cell growth in a cell viability assay.
# [21] = tested on: SW1573; assay type: functional, cell-based, Homo sapiens; settings: Homo sapiens, SW1573;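 also: growth inhibition of SW1573 cells, read out with a cell viability assay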
# Description: SANGER: Inhibition of human SW1573 cell growth in a cell viability assay.
# [22] = tested on: D-263MG; assay type: functional, cell-based, Homo sapiens; settings: Homo sapiens, D-263MG
# Description: SANGER: Inhibition of human D-263MG cell growth in a cell viability assay.
# [23] = tested on: TE-1; assay type: functional, cell-based, Homo sapiens; settings: Homo sapiens, TE-1;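 also: growth inhibition of the human TE-1 cell line, read out with a cell viability assay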
# Description: SANGER: Inhibition of human TE-1 cell growth in a cell viability assay.
# [24] = tested on: SK-N-DZ; assay type: functional, cell-based, Homo sapiens; settings: Homo sapiens, SK-N-DZ;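 also: growth inhibition of the cancer cell line, read out through a viability assay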
# Description: SANGER: Inhibition of human SK-N-DZ cell growth in a cell viability assay.
# [25] = tested on: EFO-21; assay type: functional, cell-based, Homo sapiens; settings: Homo sapiens, EFO-21;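 also: growth inhibition of EFO-21 cells measured with a viability assay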
# Description: SANGER: Inhibition of human EFO-21 cell growth in a cell viability assay.
# [26] = tested on: KYSE-520 cell line; assay type: functional, cell-based, Homo sapiens; settings: Homo sapiens, KYSE-520;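 also: growth inhibition of human KYSE-520 cells, read out with a viability assay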
# Description: SANGER: Inhibition of human KYSE-520 cell growth in a cell viability assay.
# [27] = tested on: NCI-H720; assay type: functional, cell-based; settings: Homo sapiens;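 also: growth inhibition of human NCI-H720 cells determined by a cell viability assay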
# Description: SANGER: Inhibition of human NCI-H720 cell growth in a cell viability assay.
# [28] = tested on: OS-RC-2; assay type: functional, cell-based, Homo sapiens; settings: Homo sapiens, OS-RC-2;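 also: growth inhibition of human OS-RC-2 cells, measured by a cell viability assay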
# Description: SANGER: Inhibition of human OS-RC-2 cell growth in a cell viability assay.
# [29] = tested on: Ca9-22; assay type: functional, cell-based, Homo sapiens; settings: Homo sapiens, Ca9-22;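 also: growth inhibition of Ca9-22 cells, read out with a cell viability assay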
# Description: SANGER: Inhibition of human Ca9-22 cell growth in a cell viability assay.
# [30] = tested on: HSC-2; assay type: functional, cell-based, Homo sapiens; settings: Homo sapiens, HSC-2;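 also: growth inhibition of human HSC-2 cells, read out by a cell viability assay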
# Description: SANGER: Inhibition of human HSC-2 cell growth in a cell viability assay.
# [31] = tested on: EFM-19; assay type: functional, cell-based, Homo sapiens; settings: Homo sapiens, EFM-19;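 also: growth inhibition of human EFM-19 cells, measured in a cell viability assay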
# Description: SANGER: Inhibition of human EFM-19 cell growth in a cell viability assay.
# [32] = tested on: KOSC-2; assay type: functional, cell-based, Homo sapiens; settings: Homo sapiens, KOSC-2;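 also: growth inhibition of KOSC-2 cells, read out by a cell viability assay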
# Description: SANGER: Inhibition of human KOSC-2 cell growth in a cell viability assay.
# [33] = tested on: NCI-H1650; assay type: functional, cell-based, Homo sapiens; settings: Homo sapiens, NCI-H1650;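 also: growth inhibition of human NCI-H1650 cells measured by a cell viability assay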
# Description: SANGER: Inhibition of human NCI-H1650 cell growth in a cell viability assay.
# [34] = tested on: MDA-MB-453; assay type: functional, cell-based, Homo sapiens; settings: Homo sapiens, MDA-MB-453
# Description: SANGER: Inhibition of human MDA-MB-453 cell growth in a cell viability assay.
# [35] = tested on: GAMG; assay type: functional, cell-based, Homo sapiens; settings: Homo sapiens, GAMG;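 also: cell growth inhibition measured by a viability assay in the GAMG human cell line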
# Description: SANGER: Inhibition of human GAMG cell growth in a cell viability assay.
# [36] = tested on: A-375; assay type: functional, cell-based, Homo sapiens; settings: Homo sapiens, A-375;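 also: growth inhibition of A375 cells, read out with a cell viability assay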
# Description: SANGER: Inhibition of human A375 cell growth in a cell viability assay.
# [37] = tested on: A388; assay type: functional, cell-based, Homo sapiens; settings: Homo sapiens, A388;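 also: growth inhibition of human A388 cells, read out with a cell viability assay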
# Description: SANGER: Inhibition of human A388 cell growth in a cell viability assay.
# [38] = tested on: U-118-MG; assay type: functional, cell-based, Homo sapiens; settings: Homo sapiens, U-118-MG
# Description: SANGER: Inhibition of human U-118-MG cell growth in a cell viability assay.
# [39] = tested on: MIA PaCa-2; assay type: functional, cell-based, Homo sapiens; settings: Homo sapiens, MIA PaCa-2;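 also: growth inhibition of MIA PaCa-2 cells, read out with a cell viability assay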
# Description: SANGER: Inhibition of human MIA-PaCa-2 cell growth in a cell viability assay.
# [40] = tested on: NMC-G1; assay type: functional, cell-based, Homo sapiens; settings: Homo sapiens, NMC-G1;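 also: growth inhibition of the NMC-G1 cell line, measured with a cell viability read-out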
# Description: SANGER: Inhibition of human NMC-G1 cell growth in a cell viability assay.
# [41] = tested on: KM-H2; assay type: functional, cell-based; settings: Homo sapiens;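 also: growth inhibition of KM-H2 cells, read out by a cell viability assay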
# Description: SANGER: Inhibition of human KM-H2 cell growth in a cell viability assay.
# [42] = tested on: Calu-6; assay type: functional, cell-based, Homo sapiens; settings: Homo sapiens, Calu-6;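 also: growth of human Calu-6 cells, read out by a cell viability assay, IC50 marking inhibition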
# Description: SANGER: Inhibition of human Calu-6 cell growth in a cell viability assay.
# [43] = tested on: SK-UT-1; assay type: functional, cell-based, Homo sapiens; settings: Homo sapiens, SK-UT-1;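 also: growth inhibition of SK-UT-1 cells, measured by a cell viability assay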
# Description: SANGER: Inhibition of human SK-UT-1 cell growth in a cell viability assay.
# [44] = tested on: JVM-2; assay type: functional, cell-based; settings: Homo sapiens;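 also: growth inhibition of JVM-2 cells determined by a cell viability assay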
# Description: SANGER: Inhibition of human JVM-2 cell growth in a cell viability assay.
# [45] = tested on: GT3TKB; assay type: functional, cell-based, Homo sapiens; settings: Homo sapiens, GT3TKB;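 also: growth inhibition of the cell line, read out with a cell viability assay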
# Description: SANGER: Inhibition of human GT3TKB cell growth in a cell viability assay.
# [46] = tested on: ME-180; assay type: functional, cell-based; settings: Homo sapiens;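 also: cell viability assay measuring growth inhibition of ME-180 cells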
# Description: SANGER: Inhibition of human ME-180 cell growth in a cell viability assay.
# [47] = tested on: HCE-4; assay type: functional, cell-based, Homo sapiens; settings: Homo sapiens, HCE-4;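 also: cell viability assay measuring inhibition of growth in the human HCE-4 cell line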
# Description: SANGER: Inhibition of human HCE-4 cell growth in a cell viability assay.
# [48] = tested on: GP5d; assay type: functional, cell-based, Homo sapiens; settings: Homo sapiens, GP5d;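 also: growth inhibition of human GP5d cells, read out with a cell viability assay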
# Description: SANGER: Inhibition of human GP5d cell growth in a cell viability assay.
# [49] = tested on: HT-3; assay type: functional, cell-based, Homo sapiens; settings: Homo sapiens, HT-3;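 also: growth inhibition measured with a cell viability readout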
# Description: SANGER: Inhibition of human HT-3 cell growth in a cell viability assay.
# [50] = tested on: SK-N-AS; assay type: functional, cell-based, Homo sapiens; settings: Homo sapiens, SK-N-AS;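 also: growth inhibition of human SK-N-AS cells, measured with a cell viability assay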
# Description: SANGER: Inhibition of human SK-N-AS cell growth in a cell viability assay.
smiles,measurement,setting,value
C=CCNC1=C2C[C@@H](C)C[C@H](OC)[C@H](O)[C@@H](C)/C=C(\C)[C@H](OC(N)=O)[C@@H](OC)/C=C\C=C(/C)C(=O)NC(=CC1=O)C2=O [TANESPIMYCIN],IC50,[1],> 1000 nM
same,IC50,[2],15 nM
same,IC50,[3],> 1000 nM
same,IC50,[4],340 nM
same,IC50,[5],82.1 nM
same,IC50,[6],> 1000 nM
same,IC50,[7],> 1000 nM
same,IC50,[8],87.3 nM
same,IC50,[9],129 nM
same,IC50,[10],141 nM
same,IC50,[11],610 nM
same,IC50,[12],> 1000 nM
same,IC50,[13],172 nM
same,IC50,[14],264 nM
same,IC50,[15],> 1000 nM
same,IC50,[16],69.2 nM
same,IC50,[17],> 1000 nM
same,IC50,[18],> 1000 nM
same,IC50,[19],129 nM
same,IC50,[20],> 1000 nM
same,IC50,[21],148 nM
same,IC50,[22],27.9 nM
same,IC50,[23],92 nM
same,IC50,[24],> 1000 nM
same,IC50,[25],> 1000 nM
same,IC50,[26],182 nM
same,IC50,[27],25.5 nM
same,IC50,[28],245 nM
same,IC50,[29],> 1000 nM
same,IC50,[30],341 nM
same,IC50,[31],737 nM
same,IC50,[32],177 nM
same,IC50,[33],201 nM
same,IC50,[34],672 nM
same,IC50,[35],34.3 nM
same,IC50,[36],128 nM
same,IC50,[37],765 nM
same,IC50,[38],276 nM
same,IC50,[39],10.1 nM
same,IC50,[40],293 nM
same,IC50,[41],> 1000 nM
same,IC50,[42],> 1000 nM
same,IC50,[43],31.8 nM
same,IC50,[44],> 1000 nM
same,IC50,[45],59.4 nM
same,IC50,[46],28.9 nM
same,IC50,[47],474 nM
same,IC50,[48],141 nM
same,IC50,[49],482 nM
same,IC50,[50],> 1000 nM
Cn1cncc1[C@@](N)(c1ccc(Cl)cc1)c1ccc2c(c1)c(-c1cccc(Cl)c1)cc(=O)n2C [TIPIFARNIB],IC50,[1],> 16000 nM
same,IC50,[2],2110 nM
same,IC50,[3],> 16000 nM
same,IC50,[4],1260 nM
same,IC50,[5],655 nM
same,IC50,[6],10500 nM
same,IC50,[7],1470 nM
same,IC50,[8],2300 nM
same,IC50,[9],> 16000 nM
same,IC50,[10],1490 nM
same,IC50,[11],9820 nM
same,IC50,[12],8290 nM
same,IC50,[13],> 16000 nM
same,IC50,[14],> 16000 nM
same,IC50,[15],2760 nM
same,IC50,[16],547 nM
same,IC50,[17],13600 nM
same,IC50,[18],1470 nM
same,IC50,[19],3030 nM
same,IC50,[20],5590 nM
same,IC50,[21],> 16000 nM
same,IC50,[22],> 16000 nM
same,IC50,[23],2610 nM
same,IC50,[24],4710 nM
same,IC50,[25],4260 nM
same,IC50,[26],> 16000 nM
same,IC50,[27],> 16000 nM
same,IC50,[28],15000 nM
same,IC50,[29],2940 nM
same,IC50,[30],5200 nM
same,IC50,[31],1750 nM
same,IC50,[32],> 16000 nM
same,IC50,[33],> 16000 nM
same,IC50,[34],> 16000 nM
same,IC50,[35],8920 nM
same,IC50,[36],616 nM
same,IC50,[37],865 nM
same,IC50,[38],> 16000 nM
same,IC50,[39],320 nM
same,IC50,[40],425 nM
same,IC50,[41],> 16000 nM
same,IC50,[42],1280 nM
same,IC50,[43],4860 nM
same,IC50,[44],> 16000 nM
same,IC50,[45],3010 nM
same,IC50,[46],14500 nM
same,IC50,[47],3040 nM
same,IC50,[48],1420 nM
same,IC50,[49],> 16000 nM
same,IC50,[50],> 16000 nM
CCC1=C[C@@H]2CN(C1)Cc1c([nH]c3ccccc13)[C@@](C(=O)OC)(c1cc3c(cc1OC)N(C)[C@H]1[C@@](O)(C(=O)OC)[C@H](OC(C)=O)[C@]4(CC)C=CCN5CC[C@]31[C@@H]54)C2 [VINORELBINE],IC50,[1],14.8 nM
same,IC50,[2],9.76 nM
same,IC50,[3],19.8 nM
same,IC50,[4],> 64 nM
same,IC50,[5],2.9 nM
same,IC50,[6],1.22 nM
same,IC50,[7],3.3 nM
same,IC50,[8],1.56 nM
same,IC50,[9],45.6 nM
same,IC50,[10],4.98 nM
same,IC50,[11],45.1 nM
same,IC50,[12],10 nM
same,IC50,[13],> 64 nM
same,IC50,[14],> 64 nM
same,IC50,[15],1.49 nM
same,IC50,[16],3.24 nM
same,IC50,[17],> 64 nM
same,IC50,[18],3.86 nM
same,IC50,[19],37.3 nM
same,IC50,[20],27 nM
same,IC50,[21],34 nM
same,IC50,[22],> 64 nM
same,IC50,[23],13.1 nM
same,IC50,[24],> 64 nM
same,IC50,[25],21.7 nM
same,IC50,[26],17.8 nM
same,IC50,[27],> 64 nM
same,IC50,[28],34.3 nM
same,IC50,[29],10.3 nM
same,IC50,[30],2.25 nM
same,IC50,[31],6.04 nM
same,IC50,[32],> 64 nM
same,IC50,[33],40.7 nM
same,IC50,[34],> 64 nM
same,IC50,[35],13 nM
same,IC50,[36],38.2 nM
same,IC50,[37],6.07 nM
same,IC50,[38],> 64 nM
same,IC50,[39],5.83 nM
same,IC50,[40],14.9 nM
same,IC50,[41],9.11 nM
same,IC50,[42],5.7 nM
same,IC50,[43],2.23 nM
same,IC50,[44],> 64 nM
same,IC50,[45],0.748 nM
same,IC50,[46],21 nM
same,IC50,[47],20.8 nM
same,IC50,[48],7.84 nM
same,IC50,[49],> 64 nM
same,IC50,[50],> 64 nM
